Measured values from US20160289186A1, “FLUOROMETHYL-SUBSTITUTED PYRROLE CA[…]” (Grunenthal GmbH, priority 2013, published 2016).

Each molecule was assayed against T1, Human CaV2.2 channels (Homo sapiens, UniProt Q00975) (assay: Fluorescent (FLIPR) assay for CaV2.2 channels using potassium depolarization to induce channel opening). Settings: 3 μM compound; 30 mM KCl assay buffer (inactivated channel state); HEK293 cells stably expressing human CaV2.2; read-out: Activity Category: %-Inhib (CaV2.2) @3 μM @30 mM KCl.
T1 construct: expressed in transfected cells; host or cells: HEK293
T1 sequence (Q00975 whole entry): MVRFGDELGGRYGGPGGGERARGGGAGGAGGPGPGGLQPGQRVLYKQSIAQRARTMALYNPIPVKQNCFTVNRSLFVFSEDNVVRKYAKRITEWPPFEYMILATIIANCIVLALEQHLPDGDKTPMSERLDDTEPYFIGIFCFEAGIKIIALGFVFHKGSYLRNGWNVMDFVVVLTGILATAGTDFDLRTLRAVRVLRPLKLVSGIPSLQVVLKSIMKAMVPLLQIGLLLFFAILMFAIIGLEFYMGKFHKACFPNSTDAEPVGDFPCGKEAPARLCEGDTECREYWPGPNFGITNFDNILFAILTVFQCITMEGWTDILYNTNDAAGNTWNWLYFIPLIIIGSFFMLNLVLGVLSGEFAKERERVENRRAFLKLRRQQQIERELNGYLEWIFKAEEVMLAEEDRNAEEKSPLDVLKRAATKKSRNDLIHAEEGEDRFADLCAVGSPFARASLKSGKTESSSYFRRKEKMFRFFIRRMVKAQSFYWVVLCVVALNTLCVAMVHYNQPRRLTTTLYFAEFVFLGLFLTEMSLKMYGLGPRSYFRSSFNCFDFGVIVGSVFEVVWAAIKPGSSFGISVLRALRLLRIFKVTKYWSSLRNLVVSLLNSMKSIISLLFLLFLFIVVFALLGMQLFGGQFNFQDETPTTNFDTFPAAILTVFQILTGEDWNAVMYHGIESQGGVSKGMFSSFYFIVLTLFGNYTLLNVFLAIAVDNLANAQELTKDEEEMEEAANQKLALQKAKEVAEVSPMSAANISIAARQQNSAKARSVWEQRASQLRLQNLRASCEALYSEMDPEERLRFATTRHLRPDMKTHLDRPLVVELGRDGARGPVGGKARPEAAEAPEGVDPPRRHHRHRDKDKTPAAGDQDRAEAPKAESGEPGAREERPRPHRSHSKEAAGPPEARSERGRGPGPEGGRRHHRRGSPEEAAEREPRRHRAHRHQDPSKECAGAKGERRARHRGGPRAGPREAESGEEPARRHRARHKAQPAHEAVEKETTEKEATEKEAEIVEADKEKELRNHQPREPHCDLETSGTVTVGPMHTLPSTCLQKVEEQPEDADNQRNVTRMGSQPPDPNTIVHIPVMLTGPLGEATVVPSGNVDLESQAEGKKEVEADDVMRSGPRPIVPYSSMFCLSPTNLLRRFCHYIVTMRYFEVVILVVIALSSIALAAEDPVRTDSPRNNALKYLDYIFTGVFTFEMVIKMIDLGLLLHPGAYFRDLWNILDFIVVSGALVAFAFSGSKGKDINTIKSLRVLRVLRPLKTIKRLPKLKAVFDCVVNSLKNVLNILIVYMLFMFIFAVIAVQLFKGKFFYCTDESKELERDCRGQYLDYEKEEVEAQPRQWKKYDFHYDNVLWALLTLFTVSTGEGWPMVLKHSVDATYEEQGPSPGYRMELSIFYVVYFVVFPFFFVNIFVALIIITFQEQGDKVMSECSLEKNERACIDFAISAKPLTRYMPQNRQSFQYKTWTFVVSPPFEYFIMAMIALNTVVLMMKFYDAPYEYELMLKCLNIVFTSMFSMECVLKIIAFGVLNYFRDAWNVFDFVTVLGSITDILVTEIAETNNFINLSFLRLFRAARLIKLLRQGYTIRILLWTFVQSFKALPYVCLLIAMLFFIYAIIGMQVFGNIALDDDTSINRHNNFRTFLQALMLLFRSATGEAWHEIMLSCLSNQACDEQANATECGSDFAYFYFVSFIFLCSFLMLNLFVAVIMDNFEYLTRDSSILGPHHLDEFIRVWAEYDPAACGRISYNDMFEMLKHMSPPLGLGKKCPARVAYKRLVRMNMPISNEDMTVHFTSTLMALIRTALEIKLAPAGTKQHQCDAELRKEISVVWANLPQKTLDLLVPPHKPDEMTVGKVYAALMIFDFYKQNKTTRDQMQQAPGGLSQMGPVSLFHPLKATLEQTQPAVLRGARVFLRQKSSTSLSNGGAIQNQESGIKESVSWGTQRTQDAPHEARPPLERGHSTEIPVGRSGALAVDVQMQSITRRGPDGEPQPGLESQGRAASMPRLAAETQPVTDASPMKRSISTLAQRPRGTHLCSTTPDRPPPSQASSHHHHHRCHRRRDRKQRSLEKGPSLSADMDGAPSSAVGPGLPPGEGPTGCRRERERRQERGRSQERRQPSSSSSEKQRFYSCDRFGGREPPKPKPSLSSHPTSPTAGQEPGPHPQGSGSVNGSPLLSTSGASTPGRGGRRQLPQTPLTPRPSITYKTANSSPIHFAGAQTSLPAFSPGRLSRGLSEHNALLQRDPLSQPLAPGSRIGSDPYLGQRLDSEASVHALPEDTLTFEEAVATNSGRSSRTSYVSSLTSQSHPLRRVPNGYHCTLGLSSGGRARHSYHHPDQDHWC
T1 sequence (P54284 whole entry, further chain): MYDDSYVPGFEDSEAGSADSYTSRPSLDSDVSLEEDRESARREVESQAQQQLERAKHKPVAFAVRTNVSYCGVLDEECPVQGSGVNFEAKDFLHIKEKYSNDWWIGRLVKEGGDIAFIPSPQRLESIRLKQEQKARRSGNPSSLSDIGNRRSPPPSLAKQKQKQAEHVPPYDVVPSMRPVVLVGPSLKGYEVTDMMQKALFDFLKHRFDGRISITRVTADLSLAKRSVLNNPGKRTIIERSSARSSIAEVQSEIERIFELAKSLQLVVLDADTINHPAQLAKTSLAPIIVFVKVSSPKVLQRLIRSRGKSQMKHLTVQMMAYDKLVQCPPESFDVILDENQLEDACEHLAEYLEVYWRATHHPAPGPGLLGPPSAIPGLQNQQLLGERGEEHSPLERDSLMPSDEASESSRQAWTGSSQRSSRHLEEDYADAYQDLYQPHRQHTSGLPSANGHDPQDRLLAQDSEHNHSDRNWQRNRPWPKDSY
T1 sequence (P54289 25-1103, further chain): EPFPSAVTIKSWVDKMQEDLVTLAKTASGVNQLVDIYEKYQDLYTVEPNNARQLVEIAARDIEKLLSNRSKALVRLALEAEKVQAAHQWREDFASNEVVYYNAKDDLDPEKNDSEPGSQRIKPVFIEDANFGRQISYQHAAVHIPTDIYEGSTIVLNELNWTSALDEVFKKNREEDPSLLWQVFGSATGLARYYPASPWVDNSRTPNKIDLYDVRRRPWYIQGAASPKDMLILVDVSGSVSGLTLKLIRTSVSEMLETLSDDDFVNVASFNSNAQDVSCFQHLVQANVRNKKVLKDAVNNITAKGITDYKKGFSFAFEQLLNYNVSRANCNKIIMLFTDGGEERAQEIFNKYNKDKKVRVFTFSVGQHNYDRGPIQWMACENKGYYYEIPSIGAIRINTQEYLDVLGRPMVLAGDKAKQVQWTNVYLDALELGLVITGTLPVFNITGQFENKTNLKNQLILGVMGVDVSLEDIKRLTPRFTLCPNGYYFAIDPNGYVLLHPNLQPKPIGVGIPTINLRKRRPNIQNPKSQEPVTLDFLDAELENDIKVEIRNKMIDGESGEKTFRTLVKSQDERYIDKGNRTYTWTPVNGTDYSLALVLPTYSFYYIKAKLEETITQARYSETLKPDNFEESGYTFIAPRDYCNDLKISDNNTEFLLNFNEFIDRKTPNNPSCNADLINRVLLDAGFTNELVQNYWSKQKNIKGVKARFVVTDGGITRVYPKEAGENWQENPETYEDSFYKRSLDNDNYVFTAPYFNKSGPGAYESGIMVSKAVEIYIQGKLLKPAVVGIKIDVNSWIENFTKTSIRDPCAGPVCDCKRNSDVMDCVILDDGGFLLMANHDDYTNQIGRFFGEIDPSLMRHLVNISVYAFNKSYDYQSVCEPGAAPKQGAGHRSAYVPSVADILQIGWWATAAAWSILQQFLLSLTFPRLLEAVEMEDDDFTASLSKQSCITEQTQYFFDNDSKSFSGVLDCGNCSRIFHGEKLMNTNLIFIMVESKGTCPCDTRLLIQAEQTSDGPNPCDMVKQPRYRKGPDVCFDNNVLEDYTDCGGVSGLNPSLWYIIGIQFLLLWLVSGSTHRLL
Type: cell-based
From the text: In the process, the Ca^2+ influx is quantified in the FLIPR assay with the aid of a Ca^2+-sensitive dye (type Fluo-4, Molecular Probes Europe BV, Leiden, the Netherlands) in a fluorescent imaging plate reader (FLIPR 3, Molecular Devices, Sunnyvale, USA), as described hereinafter.
Human CaV2.2 channels were stably expressed in HEK293 cells together with alpha2-delta and beta subunits of voltage gated calcium channels. In addition, an inwardly rectifying potassium channel (Kir2.3) was stably expressed in these cells to augment control of the cell membrane potential by the concentration of extracellular potassium ions. Raise of the extracellular potassium concentration leads to depolarization of the membrane potential and thus regulates the voltage dependent state of CaV2.2 channels. For preparation, cells were seeded in black poly-D-lysine coated 96-well plates (Becton Dickinson, Biocoat 4640) in 100 μL medium [500 mL DMEM/F-12 plus Glutamax (Invitrogen 31331-093) plus 5.5 mL MEM NEAA 100× (Invitrogen 11140-035) plus 50 mL FBS decomplemented (Invitrogen 10270-106) plus 200 μg/mL Geneticin (Invitrogen 10131-027) plus 50 μg/mL Hygromycin B (Invitrogen 10687-010) plus 2 μg/mL Blasticidin (anti-bl5b Invivo-Gen) plus 0.2 μg/mL Puromycin (A 11138-03)] at a cell density of 30.000 cells per well. Plates were incubated at 37° C. (5% CO2) for 20 to 23 h. On the day of experiment medium was discarded and cells were loaded with Fluo 4 by addition of 100 μL of basic assay buffer (10 mM HEPES, 1 mM KCl, 149 mM NaCl, 0.8 mM CaCl2, 1.7 mM MgCl2, 10 mM Glucose, 0.1% BSA. pH 7.4) containing 2 μM Fluo 4 (Molecular Probes; F-14201), 0.01% pluronic acid (Molecular Probes; P-6866) and 2.5 mM probenecid (Molecular Probes; P36400). Cells were incubated in the dark at 25° C. for 60 min. Then dye containing buffer was discarded and 100 μL basic (1 mM KCl) or alternative (30 mM KCl) assay buffer was added. The alternative assay buffer contained altered concentrations of KCl (30 mM) and NaCl (120 mM) and was used in order to promote the inactivated channel state. After that 25 μL of basic or alternative assay buffer with or without test compound were added and cells were incubated again in the dark at 25° C. for 15 min. Fluorescence intensity was measured on a FLIPR 3 instrument (Molecular Devices Corp., Sunnyvale, Calif.) with excitation at 480 nm and emission at 535 nm. After continuously reading fluorescence for 30 sec, 50 μL of basic assay buffer containing 210 mM KCl (NaCl omitted) were added for depolarization. Peak fluorescent signal intensity was determined and the amplitude of the peak signal, normalized to base line, was used to measure channel inhibition by test compounds.

Structure (SMILES)	inhibition at 3 µM [%]
Cc1c(-c2ccc(Cl)cc2)c(C(=O)N2CC(O)C2)n(C2CC2)c1C(F)(F)F [Example 025, [3-(4-Chlorophenyl)-1-cyclopropyl-4-methyl-5-(trifluoromethyl)-1H-pyrrol-2-yl]-(3-hydroxy-azetidin-1-yl)-methanone]	75 to 95
O=C(c1c(-c2ccc(Cl)cc2)cc(C(F)(F)F)n1C1CC1)N1CC(O)C1 [Example 026, [3-(4-Chlorophenyl)-1-cyclopropyl-5-(trifluoromethyl)-1H-pyrrol-2-yl]-(3-hydroxy-azetidin-1-yl)-methanone]	40 to 75
Cc1noc(C2CCN(C(=O)c3c(-c4ccc(Cl)cc4)c(C)c(C(F)(F)F)n3C3CC3)CC2)n1 [Example 027, [3-(4-Chlorophenyl)-1-cyclopropyl-4-methyl-5-(trifluoromethyl)-1H-pyrrol-2-yl]-[4-(3-methyl-[1,2,4]oxadiazol-5-yl)-piperidin-1-yl]-methanone]	75 to 95
Cc1noc(C2CCN(C(=O)c3c(-c4ccc(Cl)cc4F)c(C)c(C(F)(F)F)n3C3CC3)CC2)n1 [Example 028, [3-(4-Chloro-2-fluoro-phenyl)-1-cyclopropyl-4-methyl-5-(trifluoromethyl)-1H-pyrrol-2-yl]-[4-(3-methyl-[1,2,4]oxadiazol-5-yl)-piperidin-1-yl]-methanone]	75 to 95
Cc1noc(C2CCN(C(=O)c3c(-c4ccc(Cl)cc4)cc(C(F)(F)F)n3C3CC3)CC2)n1 [Example 029, [3-(4-Chlorophenyl)-1-cyclopropyl-5-(trifluoromethyl)-1H-pyrrol-2-yl]-[4-(3-methyl-[1,2,4]oxadiazol-5-yl)-piperidin-1-yl]-methanone]	75 to 95
Cc1c(-c2ccc(Cl)cc2)c(C(=O)N2CCOC(C)(C)C2)n(C2CC2)c1C(F)(F)F [Example 032, [3-(4-Chlorophenyl)-1-cyclopropyl-4-methyl-5-(trifluoromethyl)-1H-pyrrol-2-yl]-(2,2-dimethyl-morpholin-4-yl)-methanone]	> 95
Cc1c(-c2ccc(Cl)cc2F)c(C(=O)N2CCOC(C)(C)C2)n(C2CC2)c1C(F)(F)F [Example 033, [3-(4-Chloro-2-fluoro-phenyl)-1-cyclopropyl-4-methyl-5-(trifluoromethyl)-1H-pyrrol-2-yl]-(2,2-dimethyl-morpholin-4-yl)-methanone]	75 to 95
CC1(C)CN(C(=O)c2c(-c3ccc(Cl)cc3)cc(C(F)(F)F)n2C2CC2)CCO1 [Example 034, [3-(4-Chlorophenyl)-1-cyclopropyl-5-(trifluoromethyl)-1H-pyrrol-2-yl]-(2,2-dimethyl-morpholin-4-yl)-methanone]	75 to 95
CN(CC(C)(C)C)C(=O)c1c(-c2ccc(Cl)cc2)cc(C(F)(F)F)n1C1CC1 [Example 035, 3-(4-Chlorophenyl)-1-cyclopropyl-N-(2,2-dimethyl-propyl)-N-methyl-5-(trifluoromethyl)-1H-pyrrole-2-carboxylic acid amide]	40 to 75
CN(CC(C)(C)CO)C(=O)c1c(-c2ccc(Cl)cc2)cc(C(F)(F)F)n1C1CC1 [Example 036, 3-(4-Chlorophenyl)-1-cyclopropyl-N-(3-hydroxy-2,2-dimethyl-propyl)-N-methyl-5-(trifluoromethyl)-1H-pyrrole-2-carboxylic acid amide]	75 to 95
CN(CCS(C)(=O)=O)C(=O)c1c(-c2ccc(Cl)cc2)cc(C(F)(F)F)n1C1CC1 [Example 037, 3-(4-Chlorophenyl)-1-cyclopropyl-N-methyl-N-(2-methylsulfonyl-ethyl)-5-(trifluoromethyl)-1H-pyrrole-2-carboxylic acid amide]	40 to 75
O=C(c1c(-c2ccc(Cl)cc2)cc(C(F)(F)F)n1C1CC1)N1CCOCC1 [Example 038, [3-(4-Chlorophenyl)-1-cyclopropyl-5-(trifluoromethyl)-1H-pyrrol-2-yl]-morpholin-4-yl-methanone]	40 to 75
Cc1c(-c2ccc(Cl)cc2)c(C(=O)N(C)CC(C)(C)C)n(C2CC2)c1C(F)(F)F [Example 039, 3-(4-Chlorophenyl)-1-cyclopropyl-N-(2,2-dimethyl-propyl)-N,4-dimethyl-5-(trifluoromethyl)-1H-pyrrole-2-carboxylic acid amide]	75 to 95
Cc1c(-c2ccc(Cl)cc2)c(C(=O)N(C)CC(C)(C)CO)n(C2CC2)c1C(F)(F)F [Example 040, 3-(4-Chlorophenyl)-1-cyclopropyl-N-(3-hydroxy-2,2-dimethyl-propyl)-N,4-dimethyl-5-(trifluoromethyl)-1H-pyrrole-2-carboxylic acid amide]	75 to 95
Cc1c(-c2ccc(Cl)cc2)c(C(=O)N(C)CCS(C)(=O)=O)n(C2CC2)c1C(F)(F)F [Example 041, 3-(4-Chlorophenyl)-1-cyclopropyl-N,4-dimethyl-N-(2-methylsulfonyl-ethyl)-5-(trifluoromethyl)-1H-pyrrole-2-carboxylic acid amide]	75 to 95
Cc1c(-c2ccc(Cl)cc2)c(C(=O)N2CCOC(C)(C)C2)n(C2CCC2)c1C(F)(F)F [Example 042, [3-(4-Chlorophenyl)-1-cyclobutyl-4-methyl-5-(trifluoromethyl)-1H-pyrrol-2-yl]-(2,2-dimethyl-morpholin-4-yl)-methanone]	75 to 95
Cc1c(-c2ccc(Cl)cc2)c(C(=O)N2CCOCC2)n(C2CC2)c1C(F)(F)F [Example 043, [3-(4-Chlorophenyl)-1-cyclopropyl-4-methyl-5-(trifluoromethyl)-1H-pyrrol-2-yl]-morpholin-4-yl-methanone]	75 to 95
Cc1c(-c2ccc(Cl)cc2)c(C(=O)N2CCS(=O)(=O)C(C)(C)C2)n(C2CC2)c1C(F)(F)F [Example 044, [3-(4-Chlorophenyl)-1-cyclopropyl-4-methyl-5-(trifluoromethyl)-1H-pyrrol-2-yl]-(2,2-dimethyl-1,1-dioxo-[1,4]thiazinan-4-yl)-methanone]	75 to 95
CC(C)Cn1c(C(F)(F)F)cc(-c2ccc(F)cc2)c1C(=O)N1CCOC(C)(C)C1 [Example 045, (2,2-Dimethyl-morpholin-4-yl)-[3-(4-fluorophenyl)-1-(2-methyl-propyl)-5-(trifluoromethyl)-1H-pyrrol-2-yl]-methanone]	75 to 95
CC(C)Cn1c(C(F)(F)F)cc(-c2ccc(F)cc2)c1C(=O)N(C)C1CCOCC1 [Example 046, 3-(4-Fluorophenyl)-N-methyl-1-(2-methyl-propyl)-N-tetrahydro-pyran-4-yl-5-(trifluoromethyl)-1H-pyrrole-2-carboxylic acid amide]	> 95
Cc1cc(CN(C)C(=O)c2c(-c3ccc(F)cc3)cc(C(F)(F)F)n2CC(C)C)no1 [Example 047, 3-(4-Fluorophenyl)-N-methyl-N-[(5-methyl-isoxazol-3-yl)-methyl]-1-(2-methyl-propyl)-5-(trifluoromethyl)-1H-pyrrole-2-carboxylic acid amide]	> 95
Cc1c(-c2ccc(Cl)cc2)c(C(=O)N(C)Cc2ccncn2)n(CC(C)C)c1C(F)(F)F [Example 048, 3-(4-Chlorophenyl)-N,4-dimethyl-1-(2-methyl-propyl)-N-(pyrimidin-4-yl-methyl)-5-(trifluoromethyl)-1H-pyrrole-2-carboxylic acid amide]	> 95
